In ChEMBL document CHEMBL1138938, “Design, synthesis, and SAR studies on a series of 2-pyridinylpiperazines as potent antagonists of the melanocortin-4 receptor” (Bioorg Med Chem Lett, 2006) one finds Ki, bioavailability and CLint scaled data, which are given here for 39 molecules.

The target of one data set is Melanocortin receptor 4 (Homo sapiens, UniProt P32245). As to the kind of experiment: Displacement of [125I]NDP-MSH from human MC4R expressed in HEK293 cells. The data set is classed as cell-based. On the technique in general: In a radioligand displacement assay an active substance lowers the binding of a labelled ligand.
Data set [1] can be described thus: Oral bioavailability in rat. The format is ADME, organism-based. The following applies: in vivo.
A short description of data set [2]: Intrinsic clearance in rat liver microsome. The data set is classed as ADME. The following applies: liver microsomes. (In general: Microsomes from liver hold many membrane-bound enzymes, among them those of drug oxidation.)
The target of the next data set is Melanocortin receptor 5 (Homo sapiens, UniProt P33032). As to the kind of experiment: Displacement of [125I]NDP-MSH from human MC5R expressed in HEK293 cells. The format is cell-based.
The target of a further data set is Melanocortin receptor 3 (Homo sapiens, UniProt P41968). As to the kind of experiment: Displacement of [125I]NDP-MSH from human MC3R expressed in HEK293 cells. The data set is classed as cell-based.

SMILES strings stand for the structures.

Sequence of Melanocortin receptor 4 (P32245 whole entry): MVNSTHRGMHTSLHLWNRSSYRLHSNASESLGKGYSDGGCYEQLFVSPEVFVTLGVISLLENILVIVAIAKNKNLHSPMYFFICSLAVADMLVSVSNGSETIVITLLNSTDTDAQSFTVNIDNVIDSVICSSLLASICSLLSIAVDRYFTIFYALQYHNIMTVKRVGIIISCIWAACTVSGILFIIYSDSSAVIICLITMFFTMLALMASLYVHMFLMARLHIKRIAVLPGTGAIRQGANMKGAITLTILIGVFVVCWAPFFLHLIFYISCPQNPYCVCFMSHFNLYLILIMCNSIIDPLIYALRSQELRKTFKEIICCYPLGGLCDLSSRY
Sequence of Melanocortin receptor 5 (P33032 whole entry): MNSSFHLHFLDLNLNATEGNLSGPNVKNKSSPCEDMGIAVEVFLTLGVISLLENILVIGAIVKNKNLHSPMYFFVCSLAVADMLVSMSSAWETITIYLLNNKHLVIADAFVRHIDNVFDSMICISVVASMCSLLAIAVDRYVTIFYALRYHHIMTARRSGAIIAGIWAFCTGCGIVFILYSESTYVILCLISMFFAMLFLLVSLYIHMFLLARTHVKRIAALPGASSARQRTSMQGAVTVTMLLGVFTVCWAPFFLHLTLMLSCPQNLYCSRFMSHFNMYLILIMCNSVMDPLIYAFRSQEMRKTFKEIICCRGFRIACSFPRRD
Sequence of Melanocortin receptor 3 (P41968 whole entry): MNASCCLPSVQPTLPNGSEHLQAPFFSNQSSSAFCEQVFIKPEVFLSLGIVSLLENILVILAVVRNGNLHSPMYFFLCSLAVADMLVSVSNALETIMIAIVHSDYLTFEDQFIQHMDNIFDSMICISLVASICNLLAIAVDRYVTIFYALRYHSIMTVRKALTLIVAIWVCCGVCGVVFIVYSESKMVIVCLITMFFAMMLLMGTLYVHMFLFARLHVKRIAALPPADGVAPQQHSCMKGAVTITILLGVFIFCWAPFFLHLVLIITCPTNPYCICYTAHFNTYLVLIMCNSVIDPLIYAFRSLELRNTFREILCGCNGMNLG

As to `COc1ccccc1CCNCc1ccccc1N1CCN(C(=O)[C@@H](Cc2ccc(Cl)cc2Cl)NC(=O)CCN)CC1`, on Melanocortin receptor 4, the inhibition constant (Ki) turned out to be 1.6 nM.

On to `CC(C)NC(=O)NCc1cccnc1N1CCN(C(=O)[C@@H](Cc2ccc(Cl)cc2Cl)NC(=O)CCN)CC1`, for which, at Melanocortin receptor 4, the Ki is 1300 nM.

For the molecule `CCC(CO)NCc1cccnc1N1CCN(C(=O)[C@@H](Cc2ccc(Cl)cc2Cl)NC(=O)CCN)CC1` (stereo not given in full), at Melanocortin receptor 4, the Ki amounted to 710 nM.

On to `NCCC(=O)N[C@H](Cc1ccc(Cl)cc1Cl)C(=O)N1CCN(c2ncccc2CNCCO)CC1`, for which affinity on Melanocortin receptor 4 was put at a Ki of 520 nM.

On Melanocortin receptor 4, `NCCC(=O)N[C@H](Cc1ccc(Cl)cc1Cl)C(=O)N1CCN(c2ncccc2CNC(=O)c2ccco2)CC1` yielded a Ki of 2600 nM.

As to `NCCC(=O)N[C@H](Cc1ccc(Cl)cc1Cl)C(=O)N1CCN(c2ncccc2CNC(=O)NCc2cccs2)CC1`, on Melanocortin receptor 4, the Ki was 750 nM.

In the case of `COCC(C)NCc1ccccc1N1CCN(C(=O)[C@@H](Cc2ccc(Cl)cc2Cl)NC(=O)CCN)CC1` (stereo not given in full), the inhibition constant (Ki) on Melanocortin receptor 4 was 8.8 nM.

`NCCC(=O)N[C@H](Cc1ccc(Cl)cc1Cl)C(=O)N1CCN(c2ncccc2CNC(=O)c2ccc(F)cc2)CC1` came in with a Ki at Melanocortin receptor 4 of 2200 nM.

Regarding `CC(CO)NCc1cccnc1N1CCN(C(=O)[C@@H](Cc2ccc(Cl)cc2Cl)NC(=O)CCN)CC1C` (stereo not given in full), the inhibition constant (Ki) on Melanocortin receptor 4 came out at 420 nM.

`CC(=O)NCc1cccnc1N1CCN(C(=O)[C@@H](Cc2ccc(Cl)cc2Cl)NC(=O)CCN)CC1` came in with an inhibitory constant (Ki) at Melanocortin receptor 4 of 2800 nM.

Consider `COc1ccccc1CC(=O)NCc1cccnc1N1CCN(C(=O)[C@@H](Cc2ccc(Cl)cc2Cl)NC(=O)CCN)CC1`, for which the inhibitory constant (Ki) at Melanocortin receptor 4 was determined as 360 nM.

`NCCC(=O)N[C@H](Cc1ccc(Cl)cc1Cl)C(=O)N1CCN(c2ncccc2CNC(=O)Cc2ccc(F)cc2)CC1` came in with a Ki on Melanocortin receptor 4 of 1000 nM.

Molecule `NCCC(=O)N[C@H](Cc1ccc(Cl)cc1Cl)C(=O)N1CCN(c2ncccc2CNC(=O)Nc2ccccc2F)CC1` returned an inhibition constant (Ki) on Melanocortin receptor 4 of 1100 nM.

`NCCC(=O)N[C@H](Cc1ccc(Cl)cc1Cl)C(=O)N1CCN(c2ncccc2CNC(=O)NCc2ccccc2F)CC1` showed an inhibitory constant (Ki) on Melanocortin receptor 4 of 1000 nM.

`NCCC(=O)N[C@H](Cc1ccc(Cl)cc1Cl)C(=O)N1CCN(c2ncccc2CNC(=O)Oc2ccccc2)CC1` registered a Ki on Melanocortin receptor 4 of 1200 nM.

`NCCC(=O)N[C@H](Cc1ccc(Cl)cc1Cl)C(=O)N1CCN(c2ncccc2CNC(=O)OCc2ccccc2)CC1`: the inhibition constant Ki on Melanocortin receptor 4 is 440 nM.

In data set [1], `COc1ccccc1CCNCc1cccnc1N1CCN(C(=O)[C@@H](Cc2ccc(Cl)cc2Cl)NC(C)=O)CC1` gave a bioavailability of 0%. In data set [2], the CLint scaled amounted to 3500 mL/min/kg. Moreover, the affinity on Melanocortin receptor 4 corresponds to a Ki of 10 nM.

Molecule `COCC(C)NCc1cccnc1N1CCN(C(=O)[C@@H](Cc2ccc(Cl)cc2Cl)NC(C)=O)CC1` (stereo not given in full) returned an inhibitory constant (Ki) at Melanocortin receptor 4 of 180 nM.

The molecule `NCCC(=O)N[C@H](Cc1ccc(Cl)cc1Cl)C(=O)N1CCN(c2ncccc2CNC(=O)Nc2ccccc2)CC1` had an inhibition constant (Ki) on Melanocortin receptor 4 of 710 nM.

Consider `NCCC(=O)N[C@H](Cc1ccc(Cl)cc1Cl)C(=O)N1CCN(c2ncccc2CNCC(F)(F)F)CC1`, for which the affinity at Melanocortin receptor 4, expressed as Ki, was 170 nM.

`COc1ccc(CC(=O)NCc2cccnc2N2CCN(C(=O)[C@@H](Cc3ccc(Cl)cc3Cl)NC(=O)CCN)CC2)cc1` gave a Ki at Melanocortin receptor 4 of 550 nM.

Molecule `COc1ccccc1NC(=O)NCc1cccnc1N1CCN(C(=O)[C@@H](Cc2ccc(Cl)cc2Cl)NC(=O)CCN)CC1` came in with an inhibition constant (Ki) on Melanocortin receptor 4 of 1300 nM.

On to `CC(C)(CO)NCc1cccnc1N1CCN(C(=O)[C@@H](Cc2ccc(Cl)cc2Cl)NC(=O)CCN)CC1`, for which the Ki on Melanocortin receptor 4 amounted to 480 nM.

`CCC(COC)NCc1cccnc1N1CCN(C(=O)[C@@H](Cc2ccc(Cl)cc2Cl)NC(=O)CCN)CC1` (stereo not given in full) registered an inhibition constant Ki on Melanocortin receptor 4 of 200 nM.

For `COc1ccccc1CNC(=O)NCc1cccnc1N1CCN(C(=O)[C@@H](Cc2ccc(Cl)cc2Cl)NC(=O)CCN)CC1`, the Ki on Melanocortin receptor 4 was 560 nM.

With `COc1ccc(C(=O)NCc2cccnc2N2CCN(C(=O)[C@@H](Cc3ccc(Cl)cc3Cl)NC(=O)CCN)CC2)cc1`, the inhibition constant Ki at Melanocortin receptor 4 stood at 1500 nM.

Consider `NCCC(=O)N[C@H](Cc1ccc(Cl)cc1Cl)C(=O)N1CCN(c2ncccc2CNC(=O)Cc2ccccc2F)CC1`, for which the Ki at Melanocortin receptor 4 turned out to be 450 nM.

In data set [1], `COc1ccccc1CCNCc1cccnc1N1CCN(C(=O)[C@@H](Cc2ccc(Cl)cc2Cl)NC(=O)CCN)CC1` displayed a bioavailability of 15%. In data set [2], this molecule registered an intrinsic metabolic clearance (CLint scaled) of 390 mL/min/kg. Besides, the values for the inhibition constant (Ki) on Melanocortin receptor 5, on Melanocortin receptor 4 and at Melanocortin receptor 3 were 2100 nM, 6.7 nM and 5000 nM, respectively.

On Melanocortin receptor 4, `COCC(=O)NCc1cccnc1N1CCN(C(=O)[C@@H](Cc2ccc(Cl)cc2Cl)NC(=O)CCN)CC1` returned a Ki of 2800 nM.

As to `COc1ccccc1OC(=O)NCc1cccnc1N1CCN(C(=O)[C@@H](Cc2ccc(Cl)cc2Cl)NC(=O)CCN)CC1`, the affinity on Melanocortin receptor 4, expressed as Ki, was 1800 nM.

`NCCC(=O)N[C@H](Cc1ccc(Cl)cc1Cl)C(=O)N1CCN(c2ncccc2CNCCc2ccccc2F)CC1` registered a Ki at Melanocortin receptor 4 of 12 nM.

As for `NCCC(=O)N[C@H](Cc1ccc(Cl)cc1Cl)C(=O)N1CCN(c2ncccc2CNC(=O)c2cccs2)CC1`, on Melanocortin receptor 4, the affinity, expressed as Ki, was 1800 nM.

Take `NCCC(=O)N[C@H](Cc1ccc(Cl)cc1Cl)C(=O)N1CCN(c2ncccc2CNCc2ccccc2F)CC1`: the Ki at Melanocortin receptor 4 is 130 nM.

Take `COCC(C)NCc1cccnc1N1CCN(C(=O)[C@@H](Cc2ccc(Cl)cc2Cl)NC(=O)CCN)CC1` (stereo not given in full): at Melanocortin receptor 4, the inhibition constant Ki came out at 87 nM.

Molecule `CC(=O)N[C@H](Cc1ccc(Cl)cc1Cl)C(=O)N1CCN(c2ncccc2CNCCc2cccs2)CC1` showed an inhibitory constant (Ki) on Melanocortin receptor 4 of 21 nM.

As to `NCCC(=O)N[C@H](Cc1ccc(Cl)cc1Cl)C(=O)N1CCN(c2ncccc2CNC(CO)CO)CC1`, the inhibition constant (Ki) on Melanocortin receptor 4 was 1500 nM.

`NCCC(=O)N[C@H](Cc1ccc(Cl)cc1Cl)C(=O)N1CCN(c2ncccc2CNCCc2cccs2)CC1`: on Melanocortin receptor 4, the affinity, expressed as Ki, was 15 nM.

For the molecule `NCCC(=O)N[C@H](Cc1ccc(Cl)cc1Cl)C(=O)N1CCN(c2ncccc2CNC(=O)c2ccccc2)CC1`, on Melanocortin receptor 4, the Ki came to 1800 nM.

The molecule `NCCC(=O)N[C@H](Cc1ccc(Cl)cc1Cl)C(=O)N1CCN(c2ncccc2CNC(=O)Cc2cccs2)CC1` yielded a Ki on Melanocortin receptor 4 of 310 nM.

What is called Ki is a dissociation constant, usually derived from enzyme kinetics or from competition with a known ligand. In general, bioavailability refers to the share of a dose that reaches the circulation, judged against a reference dose that is usually intravenous. The term CLint scaled denotes the rate of metabolic loss divided by the concentration. A higher CLint scaled goes with faster metabolism.
